Values after ≈ are worked out from the molar mass of the structure shown. A value given as a limit tells only on which side of the number the result lay.

The test system of data set [1] is Escherichia coli. Description: Antibacterial activity against Escherichia coli ATCC 25922 assessed as inhibition in bacterial growth incubated for 20 to 24 hrs by CLSI based broth microdilution method. It is filed as functional. As to conditions: time 20-24 hrs. (In general: Broth dilution looks for growth in wells or tubes with falling amounts of substance.)
Data set [2] concerns Acinetobacter baumannii. Put plainly: Antibacterial activity against Acinetobacter baumannii ATCC 19606 assessed as inhibition in bacterial growth incubated for 20 to 24 hrs by CLSI based broth microdilution method. As to conditions: time 20-24 hrs. The data set is classed as functional.
For data set [3], the system named is Klebsiella pneumoniae. Description: Antibacterial activity against Klebsiella pneumoniae ATCC BAA-1705 assessed as inhibition in bacterial growth incubated for 20 to 24 hrs by CLSI based broth microdilution method. As to conditions: time 20-24 hrs. It is filed as functional.
Data set [4] has as its system Pseudomonas aeruginosa. Put plainly: Antibacterial activity against Pseudomonas aeruginosa ATCC 27853 assessed as inhibition in bacterial growth incubated for 20 to 24 hrs by CLSI based broth microdilution method. The data set is classed as functional. As to conditions: time 20-24 hrs.
A further data set deals with DNA gyrase (Escherichia coli, UniProt P0AES4+P0AES6). Put plainly: Inhibition of Escherichia coli DNA gyrase incubated for 80 mins by Transcreener ADP2 FI assay. It is filed as protein-complex assay.
The target of data set [5] is T1, hERG (KCNH2) (Homo sapiens, UniProt Q12809). Put plainly: Inhibition of hERG potassium channel expressed in CHO cells at 10 uM by electrophysiological patch clamp assay relative to control. The data set is classed as toxicity, cell-based. As to conditions: CHO cells expressing hERG.
T1 sequence (Q12809 whole entry): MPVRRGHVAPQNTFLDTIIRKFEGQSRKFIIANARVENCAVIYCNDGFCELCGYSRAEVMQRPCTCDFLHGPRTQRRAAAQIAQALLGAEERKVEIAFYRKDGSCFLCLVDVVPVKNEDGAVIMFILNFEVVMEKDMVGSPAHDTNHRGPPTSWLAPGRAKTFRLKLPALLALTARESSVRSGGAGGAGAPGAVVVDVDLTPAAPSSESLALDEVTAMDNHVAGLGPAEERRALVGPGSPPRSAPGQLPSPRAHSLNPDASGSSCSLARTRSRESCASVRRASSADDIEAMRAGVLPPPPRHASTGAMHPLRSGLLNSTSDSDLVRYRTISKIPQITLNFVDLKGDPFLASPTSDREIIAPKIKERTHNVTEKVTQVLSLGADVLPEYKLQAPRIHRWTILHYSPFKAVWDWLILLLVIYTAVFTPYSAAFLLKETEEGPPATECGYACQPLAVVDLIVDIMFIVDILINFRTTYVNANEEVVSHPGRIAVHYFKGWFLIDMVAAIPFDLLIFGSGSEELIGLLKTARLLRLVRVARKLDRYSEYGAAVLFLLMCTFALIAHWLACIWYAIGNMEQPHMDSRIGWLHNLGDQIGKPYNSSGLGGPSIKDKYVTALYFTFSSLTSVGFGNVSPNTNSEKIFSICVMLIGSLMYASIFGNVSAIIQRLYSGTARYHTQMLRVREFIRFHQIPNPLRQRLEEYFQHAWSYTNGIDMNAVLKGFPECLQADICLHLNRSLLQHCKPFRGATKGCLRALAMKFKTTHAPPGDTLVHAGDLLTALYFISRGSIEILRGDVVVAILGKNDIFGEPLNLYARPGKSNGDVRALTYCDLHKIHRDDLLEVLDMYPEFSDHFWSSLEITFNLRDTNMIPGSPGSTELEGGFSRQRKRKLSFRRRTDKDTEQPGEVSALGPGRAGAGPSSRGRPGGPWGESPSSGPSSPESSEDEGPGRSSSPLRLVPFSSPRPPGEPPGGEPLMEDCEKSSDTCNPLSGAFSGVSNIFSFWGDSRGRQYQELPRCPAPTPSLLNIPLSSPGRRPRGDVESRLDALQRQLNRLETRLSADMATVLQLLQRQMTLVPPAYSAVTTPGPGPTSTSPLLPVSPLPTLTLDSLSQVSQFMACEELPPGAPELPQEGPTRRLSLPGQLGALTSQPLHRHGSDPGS
Data set [6] relates to Escherichia coli. Description: Antibacterial activity against Escherichia coli K-12 BW25113 assessed as inhibition in bacterial growth incubated for 20 to 24 hrs by CLSI based broth microdilution method. It is filed as functional. To be noted: Escherichia coli, K-12 BW25113, time 20-24 hrs; read-out: MIC.
Data set [7] has as its system Escherichia coli. Put plainly: Antibacterial activity against Escherichia coli K-12 BW25113 deltaTolC assessed as inhibition in bacterial growth incubated for 20 to 24 hrs by CLSI based broth microdilution method. The data set is classed as functional. To be noted: time 20-24 hrs.
In data set [8] the test system is Escherichia coli. Description: Antibacterial activity against Escherichia coli ATCC 35218 assessed as inhibition in bacterial growth incubated for 20 to 24 hrs by CLSI based broth microdilution method. It is filed as functional.
Data set [9] has as its system Escherichia coli. Put plainly: Antibacterial activity against Escherichia coli ATCC BAA-2340 assessed as inhibition in bacterial growth incubated for 20 to 24 hrs by CLSI based broth microdilution method. The data set is classed as functional.
The test system of data set [10] is Acinetobacter baumannii. Description: Antibacterial activity against Acinetobacter baumannii ATCC 51432 assessed as inhibition in bacterial growth incubated for 20 to 24 hrs by CLSI based broth microdilution method. The data set is classed as functional.
In data set [11] the test system is Acinetobacter baumannii. Put plainly: Antibacterial activity against Acinetobacter baumannii ATCC BAA-747 assessed as inhibition in bacterial growth incubated for 20 to 24 hrs by CLSI based broth microdilution method. The data set is classed as functional. To be noted: Acinetobacter baumannii, ATCC BAA-747, time 20-24 hrs; read-out: MIC.
The subject of data set [12] is Klebsiella pneumoniae. Put plainly: Antibacterial activity against Klebsiella pneumoniae ATCC 10031 assessed as inhibition in bacterial growth incubated for 20 to 24 hrs by CLSI based broth microdilution method. It is filed as functional. To be noted: time 20-24 hrs.
Data set [13] deals with Klebsiella pneumoniae. Put plainly: Antibacterial activity against Klebsiella pneumoniae ATCC 700603 assessed as inhibition in bacterial growth incubated for 20 to 24 hrs by CLSI based broth microdilution method. The data set is classed as functional.
Data set [14] concerns Klebsiella pneumoniae. Put plainly: Antibacterial activity against Klebsiella pneumoniae ATCC BAA-2146 assessed as inhibition in bacterial growth incubated for 20 to 24 hrs by CLSI based broth microdilution method. It is filed as functional.
Data set [15] deals with Pseudomonas aeruginosa. Put plainly: Antibacterial activity against Pseudomonas aeruginosa NCTC 13437 assessed as inhibition in bacterial growth incubated for 20 to 24 hrs by CLSI based broth microdilution method. As to conditions: Pseudomonas aeruginosa, NCTC 13437, time 20-24 hrs; read-out: MIC. The data set is classed as functional.
For data set [16], the system named is Pseudomonas aeruginosa. Description: Antibacterial activity against Pseudomonas aeruginosa NCTC 11451 assessed as inhibition in bacterial growth incubated for 20 to 24 hrs by CLSI based broth microdilution method. The data set is classed as functional.
For data set [17], the system named is Staphylococcus aureus. Description: Antibacterial activity against Staphylococcus aureus ATCC BAA-1556 assessed as inhibition in bacterial growth incubated for 20 to 24 hrs by CLSI based broth microdilution method. The data set is classed as functional.
The test system of data set [18] is Staphylococcus aureus. Put plainly: Antibacterial activity against Staphylococcus aureus ATCC 29213 assessed as inhibition in bacterial growth incubated for 20 to 24 hrs by CLSI based broth microdilution method. It is filed as functional. As to conditions: Staphylococcus aureus, ATCC 29213; time 20-24 hrs; read-out: MIC.
The nature of data set [19]: Inhibition of Escherichia coli topoisomerase 4 incubated for 120 mins by Transcreener ADP2 FI assay.
Data set [20] deals with T1, hERG (KCNH2). Put plainly: Inhibition of hERG potassium channel expressed in CHO cells at 1 uM by electrophysiological patch clamp assay relative to control. The data set is classed as toxicity, cell-based. As to conditions: CHO cells expressing hERG. (In general: The hERG channel carries a current that helps repolarise heart muscle cells.)
Data set [21] addresses Voltage-gated inwardly rectifying potassium channel KCNH2 (Homo sapiens, UniProt Q12809). Description: (§1) Inhibition of hERG potassium channel expressed in CHO cells by electrophysiological patch clamp assay. The data set is classed as toxicity, cell-based.
The target in data set [22] is T1, hERG (KCNH2). The description is as §1. The data set is classed as toxicity, cell-based. As to conditions: human, CHO cells expressing hERG.
Where [23] appears, read: Escherichia coli, ATCC 35218, time 20-24 hrs, read-out: MIC.
Setting [24] is: Escherichia coli, ATCC BAA-2340, time 20-24 hrs, read-out: MIC.
Where [25] appears, read: Acinetobacter baumannii, ATCC 51432, time 20-24 hrs, read-out: MIC.
[26] abbreviates: Klebsiella pneumoniae, ATCC 700603, time 20-24 hrs, read-out: MIC.
Where [27] appears, read: Klebsiella pneumoniae, ATCC BAA-2146, time 20-24 hrs, read-out: MIC.
The mark [28] stands for this setting: Pseudomonas aeruginosa, NCTC 11451, time 20-24 hrs, read-out: MIC.
[29] abbreviates: Staphylococcus aureus, ATCC BAA-1556, time 20-24 hrs, read-out: MIC.

Voltage-gated inwardly rectifying potassium channel KCNH2, sequence (Q12809 whole entry): as above

In the case of `C[C@@H](N)COc1cc(F)c2c(c1)CC(CN1CCC3(CC1)CN(c1cnc4c(n1)NC(=O)CO4)C(=O)O3)C2` (some centres not stated), the MIC (as a rule, the smallest concentration in the dilution series that meets the test's criterion for growth inhibition) was ≤ 0.06 µg/mL in the data set on Escherichia coli [1]; 0.25 µg/mL (≈ 0.475 µM) with Acinetobacter baumannii [2]; 0.5 µg/mL (≈ 0.95 µM) in the data set with Klebsiella pneumoniae [3]; 0.125 µg/mL (≈ 0.237 µM) with Pseudomonas aeruginosa [4]; ≤ 0.06 µg/mL in the data set with Escherichia coli [6]; ≤ 0.06 µg/mL with Escherichia coli [7]. Besides, the MIC was ≤ 0.06 µg/mL in the data set with Escherichia coli [8] (setting [23]); 0.125 µg/mL (≈ 0.237 µM) in the data set with Escherichia coli [9] (setting [24]); 0.5 µg/mL (≈ 0.95 µM) with Acinetobacter baumannii [10] (setting [25]); ≤ 0.06 µg/mL in the data set on Acinetobacter baumannii [11]; ≤ 0.06 µg/mL with Klebsiella pneumoniae [12]; 1 µg/mL (≈ 1.9 µM) in the data set with Klebsiella pneumoniae [13] (setting [26]). Also, the MIC with Klebsiella pneumoniae [14] (setting [27]) is 1 µg/mL (≈ 1.9 µM); with Pseudomonas aeruginosa [15], 0.5 µg/mL (≈ 0.95 µM); in the data set with Pseudomonas aeruginosa [16] (setting [28]) it was 0.5 µg/mL (≈ 0.95 µM); in the data set on Staphylococcus aureus [17] (setting [29]) it was ≤ 0.06 µg/mL; with Staphylococcus aureus [18], ≤ 0.06 µg/mL. Also, the results for the 50% inhibitory concentration (IC50) (at DNA gyrase; in data set [19]; in [21]) were 24 nM, 16 nM and > 20000 nM, respectively. At 10 µM the inhibition against hERG (KCNH2) [5] was 12%. For the same compound, at hERG (KCNH2) [20], the inhibition (usually the drop in the measured response relative to a control, in per cent) at 1 µM stood at 6.7%. Also, on hERG (KCNH2) [22], the IC20 (commonly the concentration at which the effect reaches the 20% level) is > 10000 nM.
Take `C[C@H](C(=O)Nc1cc(F)c2c(c1)CC(CNCCC1CN(c3cnc4c(n3)NC(=O)CO4)C(=O)O1)C2)N(C)C` (stereo in doubt; 2g): the results for the IC50 (on DNA gyrase; in data set [19]; in [21]) were 26 nM, 13 nM and 251000 nM, respectively. Moreover, the MIC with Escherichia coli [8] (time 20-24 hrs) was determined as 0.125 µg/mL (≈ 0.231 µM); in the data set with Escherichia coli [9] (time 20-24 hrs) it was 0.125 µg/mL (≈ 0.231 µM); in the data set with Acinetobacter baumannii [10] (time 20-24 hrs), 4 µg/mL (≈ 7.39 µM); in the data set on Klebsiella pneumoniae [13] (time 20-24 hrs), 1 µg/mL (≈ 1.85 µM); with Klebsiella pneumoniae [14] (time 20-24 hrs), 8 µg/mL (≈ 14.8 µM); with Pseudomonas aeruginosa [16] (time 20-24 hrs) it was 2 µg/mL (≈ 3.69 µM). The minimum inhibitory concentration (MIC) in the data set with Staphylococcus aureus [17] (time 20-24 hrs) came to 0.5 µg/mL (≈ 0.923 µM). It took 81000 nM to reach the 20% level in [21] (human, cho) (IC20).
For `O=C(O)COc1cc(F)c2c(c1)CC(CNCCC1CN(c3ccc4c(n3)NC(=O)CO4)C(=O)O1)C2` (configuration not stated), the minimal inhibitory concentration (MIC) was > 64 µg/mL with Escherichia coli [1]; > 64 µg/mL in the data set with Acinetobacter baumannii [2]; > 64 µg/mL in the data set on Klebsiella pneumoniae [3]; > 64 µg/mL in the data set on Pseudomonas aeruginosa [4]; > 64 µg/mL in the data set with Escherichia coli [6]; 8 µg/mL (≈ 16 µM) in the data set on Escherichia coli [7]. Also, the MIC was > 64 µg/mL in the data set with Escherichia coli [8] (setting [23]); > 64 µg/mL in the data set with Escherichia coli [9] (setting [24]); > 64 µg/mL in the data set on Acinetobacter baumannii [10] (setting [25]); > 64 µg/mL in the data set on Acinetobacter baumannii [11]; 16 µg/mL (≈ 32 µM) with Klebsiella pneumoniae [12]; > 64 µg/mL with Klebsiella pneumoniae [13] (setting [26]). The MIC in the data set with Klebsiella pneumoniae [14] (setting [27]), in the data set with Pseudomonas aeruginosa [15], with Pseudomonas aeruginosa [16] (setting [28]), in the data set on Staphylococcus aureus [17] (setting [29]) and in the data set on Staphylococcus aureus [18] was > 64 µg/mL in each case. For the same compound, the IC50 (as a rule, the point on the concentration scale where inhibition reaches its midpoint) was found to be 600 nM against DNA gyrase and 370 nM in data set [19].
With `CN(C(=O)CN1CCC1)c1cc(F)c2c(c1)CC(CNCCC1CN(c3cnc4c(n3)NC(=O)CO4)C(=O)O1)C2` (configuration not stated), the MIC is 32 µg/mL (≈ 57.8 µM) with Escherichia coli [1]; > 64 µg/mL in the data set with Acinetobacter baumannii [2]; > 64 µg/mL in the data set on Klebsiella pneumoniae [3]; 64 µg/mL (≈ 116 µM) with Pseudomonas aeruginosa [4]; 16 µg/mL (≈ 28.9 µM) with Escherichia coli [6]; 1 µg/mL (≈ 1.81 µM) in the data set with Escherichia coli [7]. For the same compound, the MIC in the data set on Escherichia coli [8] (setting [23]) is 32 µg/mL (≈ 57.8 µM); in the data set on Escherichia coli [9] (setting [24]) it was 64 µg/mL (≈ 116 µM); in the data set on Acinetobacter baumannii [10] (setting [25]) it was > 64 µg/mL; in the data set with Acinetobacter baumannii [11] it was > 64 µg/mL; in the data set with Klebsiella pneumoniae [12], > 64 µg/mL; in the data set on Klebsiella pneumoniae [13] (setting [26]) it was > 64 µg/mL. Moreover, the MIC with Klebsiella pneumoniae [14] (setting [27]) is > 64 µg/mL; in the data set with Pseudomonas aeruginosa [15], 64 µg/mL (≈ 116 µM); in the data set on Pseudomonas aeruginosa [16] (setting [28]), > 64 µg/mL; in the data set on Staphylococcus aureus [17] (setting [29]), > 64 µg/mL; in the data set with Staphylococcus aureus [18] it was 64 µg/mL (≈ 116 µM). The IC50 was determined as 1100 nM against DNA gyrase and 150 nM in [19].

(Values after ChEMBL document CHEMBL5390317, “Novel Indane-Containing NBTIs with Potent Anti-Gram-Negative Activity and Minimal hERG Inhibition” (ACS Med Chem Lett, 2023).)
